Peptide text beside a SMILES is read from it. * marks the point of attachment. Cbz = O=C(OCc1ccccc1)*
Assays:
Type in all cases: cell-based, murine
APP cleavage processing = experiment: Western blot/immunoprecipitation of APP cleavage (CTFs, sAPP-α, holo APP) in APP-transfected N2a cells; details: for α-CTF production: at the high dose; for α-CTF generation and α-CTF to β-CTF ratio: 80 μM; for effect on the action of EGCG on α-CTF cleavage: GC or C 80 μM with EGCG, FIG. 2F
Description: Cell cultured supernatants were collected and cell lysates were prepared from these cultured cells.
Cultured cells and mouse brain were lysed in ice-cold lysis buffer described above, and an aliquot corresponding to 50 μg of total protein was electrophoretically separated using 16.5% Tris-tricine gels. Electrophoresed proteins were then transferred to PVDF membranes (Bio-Rad), washed in dH2O, and blocked for 1 hour at ambient temperature in Tris-buffered saline (TBS; Bio-Rad) containing 5% (w/v) for non-fat dry milk. After blocking, membranes were hybridized for 1 hour at ambient temperature with various antibodies, including against the C- (369), N-terminus of APP (22C11), the N-terminus of Aβ (6E10), and ADAM10 and TACE (Calbiochem). Membranes were then washed 3× for 5 min each in dH2O and incubated for 1 hour at ambient temperature with the appropriate HRP-conjugated secondary antibody (1:1,000, Pierce Biotechnology, Inc. Rockford, Ill.). All antibodies were diluted in TBS containing 5% (w/v) of non-fat dry milk. Blots were developed using the luminal reagent (Pierce Biotechnology). Densitometric analysis was done using the Fluor-S Multimager™ with Quantity One™ software (Bio-Rad). Immunoprecipitation was performed for detection of sAPP-α, sAPP-β and Aβ by incubating 200 μg of total protein of each sample with 6E10 (1:100; Signet) or 22C11 (1:100; Roche, Basel, Switzerland) overnight with gentle rocking at 4° C., and 10 μL of 50% protein A-Sepharose beads were then added to the sample (1:10; Sigma) prior to gentle rocking for an additional 4 hours at 4° C. Following washes with 1× cell lysis buffer, samples were subjected to Western blot as described above. Antibodies used for Western blot included antibody 369 (1:1,000), anti-C-terminal APP antibody (1:500; Chemicon, Temecula, Calif.), BAM-10 (1:1,000; Sigma), 6E10 (1:1,000; Signet) or anti-Actin antibody (1:1,500; as an internal reference control; Roche). α-, β- and γ-secretase activities were quantified in cell lysates and mouse brain homogenates using available kits based on secretase-specific peptides conjugated to fluorogenic receptor molecules (R&D Systems, Minneapolis, Minn.).

Aβ generation = experiment: Aβ ELISA, conditioned media of APP-transfected N2a cells (Example 1); details: co-treatment with EGCG 20 μM, GC or C 80 μM, 12 hours; SweAPP N2a cells
Description: Aβ1-40 and 1-42 peptides were analyzed in the conditioned media from SweAPP N2a cells (FIGS. 1A, 1C, 1D) and transgenic APPsw mouse-derived primary neuronal cells (FIG. 1B) by ELISA (n=3 for each condition).
TAPI-1, β and γ-secretase inhibitors were obtained from Calbiochem (San Diego, Calif.). Green tea extract (75% polyphenols) was obtained from the Vitamin Shoppe™ (North Bergen, N.J.).
Cultured cells were lysed in ice-cold-lysis buffer (20 mM Tris, pH 7.5, 150 mM NaCl, 1 mM EDTA, 1 mM EGTA, 1% v/v Triton X-100, 2.5 mM sodium pyropgosphate, 1 mM β-glycerolphosphate, 1 mM Na3VO4, 1 μg/mL leupeptin, 1 mM PMSF) as previously described (Tan et al., 2002). Mouse brains were isolated under sterile conditions on ice and placed in ice-cold lysis buffer. Brains were then sonicated on ice for approximately 3 min, allowed to stand for 15 min at 4° C., and centrifuged at 15,000 rpm for 15 min. Total Aβ1-42 species were detected by acid extraction of brain homogenates in 5 M guanidine buffer (ret), followed by a 1:10 dilution in lysis buffer. Soluble Aβ1-42 was directly detected in cultured cell lysates or brain homogenates prepared with lysis buffer described above by a 1:4 or 1:10 dilution, respectively. Aβ1-42 was quantified in these samples using the Aβ1-42 ELISA kit (BioSource, Camarillo, Calif.) in accordance with the manufacturer's instructions, except that standards included a 0.5 M guanidine buffer.
In order to examine the effects of green tea's components on APP cleavage processing, for a first step, N2a neuroblastoma cells overproducing Aβ were treated with each of the aforementioned components at a wide range of doses. In addition, doses of (+)-catechin hydrate (CH) and gallic acid monohydrate (GAM) were included in the first step.

α-secretase = α-secretase cleavage activity kit, lysates of APP-transfected N2a cells; details: TAPI-1 25 μM with EGCG 20 μM, 4 hours; FIGS. 3d and e
[1] = 0.5 μM to 1.5 μM, SweAPP N2a cells, data not shown

Oc1cc(O)c2c(c1)O[C@@H](c1ccc(O)c(O)c1)[C@@H](O)C2 [(+) EC, (+)-epicatechin]
α-CTF production (APP cleavage processing): increases

Oc1cc(O)c2c(c1)O[C@H](c1ccc(O)c(O)c1)[C@H](O)C2 [(−) EC, (−)-epicatechin]
α-CTF production (APP cleavage processing): increases

Oc1cc(O)c2c(c1)O[C@H](c1cc(O)c(O)c(O)c1)[C@@H](O)C2 [GC, (−)-gallocatechin]
effect on the ability of EGCG to reduce Aβ production (Aβ generation): markedly inhibits the ability of EGCG to reduce Aβ production | α-CTF generation and α-CTF to β-CTF ratio (APP cleavage processing): decreased | effect on the action of EGCG on α-CTF cleavage (APP cleavage processing): significantly opposes

CC(C)C[C@H](CC(=O)NO)C(=O)N[C@@H](Cc1ccc2ccccc2c1)C(=O)N[C@@H](C)C(=O)NCCN [TAPI-1, reference compound]
effect on EGCG promotion of APP α-secretase cleavage (α-secretase): significantly attenuated

CC(C)C[C@@H](C=O)NC(=O)[C@H](CC(C)C)NC(=O)[C@@H](NC(=O)OCc1ccccc1)C(C)C [β-secretase inhibitor II, reference compound] (Cbz-Val-Leu-Leu-aldehyde)
sAPP-α levels compared with EGCG (APP cleavage processing; [1]): failed to produce the same increased α-CTF and sAPP-α levels as EGCG | α-CTF levels compared with EGCG (APP cleavage processing; [1]): failed to produce the same increased α-CTF and sAPP-α levels as EGCG

(−)-catechin
effect on the ability of EGCG to reduce Aβ production (Aβ generation): markedly inhibits the ability of EGCG to reduce Aβ production | α-CTF generation and α-CTF to β-CTF ratio (APP cleavage processing): decreased | effect on the action of EGCG on α-CTF cleavage (APP cleavage processing): significantly opposes
